For data set [1], the species on record is Rattus norvegicus. Briefly: Analgesic activity against Freund's adjuvant-induced pain in rat model of acute inflammatory pain assessed as reversal of adjuvant hypersensitivity. In kind it is functional.
The nature of another data set: in vivo. The note with it: rat, brain / blood.
Data set [2] is described as follows: Oral bioavailability in rat at 1 mg/kg. The note with it: in vivo. Type of data set: ADME, organism-based.
Data set [3] is described as follows: Terminal half life in rat at 1 mg/kg/hr, iv. In kind it is ADME, organism-based. Further details: route intravenous. The settings on record: in vivo, read-out: beta t1/2 (converted).
For data set [4], the system named is Rattus norvegicus. Briefly: Antihyperalgesic activity against chronic constriction nerve injury-induced hyperalgesia in rat assessed as reversal of decrease in the paw withdrawal threshold at 5 mg/kg, po bid for 10 days measured on day 3 postdose. In kind it is functional, organism-based. Further details: dose 5 mg/kg.
Data set [5] can be described thus: Blood clearance in rat at 1 mg/kg/hr, iv. In kind it is ADME, organism-based. The note with it: whole blood. Further details: route intravenous.
For data set [6], the system named is Rattus norvegicus. Briefly: Antihyperalgesic activity against chronic constriction nerve injury-induced hyperalgesia in rat assessed as reversal of decrease in the paw withdrawal threshold at 5 mg/kg, po bid for 10 days measured on day 10 postdose. Further details: dose 5 mg/kg. Type of data set: functional, organism-based.
The target of data set [7] is T1, Prostaglandin G/H synthase 2 (Homo sapiens, UniProt P35354).
T1 sequence (P35354 whole entry): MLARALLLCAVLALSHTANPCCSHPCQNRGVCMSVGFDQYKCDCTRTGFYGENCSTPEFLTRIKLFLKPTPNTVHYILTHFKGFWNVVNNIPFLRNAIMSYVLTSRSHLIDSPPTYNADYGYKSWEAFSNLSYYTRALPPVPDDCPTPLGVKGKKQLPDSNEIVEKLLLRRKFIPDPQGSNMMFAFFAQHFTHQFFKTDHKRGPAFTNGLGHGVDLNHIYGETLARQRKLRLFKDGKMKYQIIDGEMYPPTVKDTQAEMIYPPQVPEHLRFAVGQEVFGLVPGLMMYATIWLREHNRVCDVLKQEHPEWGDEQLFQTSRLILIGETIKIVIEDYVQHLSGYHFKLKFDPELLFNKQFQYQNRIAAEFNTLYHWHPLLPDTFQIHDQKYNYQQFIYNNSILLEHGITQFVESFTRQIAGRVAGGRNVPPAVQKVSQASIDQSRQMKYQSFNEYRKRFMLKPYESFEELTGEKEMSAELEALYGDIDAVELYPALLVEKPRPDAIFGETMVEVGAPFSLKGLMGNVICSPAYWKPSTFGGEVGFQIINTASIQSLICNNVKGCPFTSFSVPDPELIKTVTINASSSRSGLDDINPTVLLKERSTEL
Briefly: biochemical. In kind it is cell-based, Sf9.

Data set [8] deals with Rattus norvegicus. Briefly: Antihyperalgesic activity against chronic constriction nerve injury-induced hyperalgesia in rat assessed as reversal of decrease in the paw withdrawal threshold at 5 mg/kg, po bid for 10 days measured on day 7 postdose. Type of data set: functional, organism-based. Further details: dose 5 mg/kg.
Data set [9] addresses T1, Prostaglandin G/H synthase 2. Type of data set: tissue-based, Blood.
Description: Inhibition of COX2 in human whole blood assessed as inhibition of lipopolysaccharide-stimulated PGE2 production after 24 hrs by enzyme immunoassay
Data set [10] can be described thus: Volume of distribution at steady state in rat at 1 mg/kg/hr, iv. Further details: route intravenous. Type of data set: ADME, organism-based. The note with it: in vivo, read-out: Vdss.

Active and inactive are the calls of the source.

Here are results for 1 compound from ChEMBL document CHEMBL1153635, “Identification of [4-[4-(methylsulfonyl)phenyl]-6-(trifluoromethyl)-2-pyrimidinyl] amines and ethers as potent and selective cyclooxygenase-2 inhibitors” (Bioorg Med Chem Lett, 2009).

Description for in vivo: Ratio of drug level in brain to blood in rat

With `CCCCOc1nc(-c2ccc(S(C)(=O)=O)cc2)cc(C(F)(F)F)n1`, the ED50 – broadly, the midpoint of the dose-response relation – in the data set filed under Rattus norvegicus [1] was 2.1 mg/kg. In addition, the Kp (as a rule, the ratio of the level in a tissue or fluid to that in plasma or blood) in the data set “in vivo” is 3.2. The bioavailability – broadly, dose-corrected exposure relative to a reference, in per cent – in data set [2] came out at 84%. In data set [3], the half-life was 4.2 h. Further, the outcome with Rattus norvegicus [4], in the data set on Rattus norvegicus [6] and in the data set with Rattus norvegicus [8] was Active. Also, in data set [5], the clearance (commonly the volume of plasma or blood freed of the substance per unit of time) worked out at 24 mL/min/kg. The IC50 (usually the concentration that gives 50% inhibition) came to 21.5 nM in data set [7] and 158 nM in [9]. For the same compound, the Vd in [10] is 5.7 L/kg.
